US11628216B2 (priority 2013, dated 2023)
Like-named read-outs stand apart in the source and are kept apart here.

How the values were obtained:
[1] = system: antibodies of Example 3 (antibody of the invention against 6-acetylmorphine); assay type: binding; details: 6-AM Conc. 10 ng/mL
Description: Cross reactivity to heroin metabolites and other common structurally related opiates may be evaluated using the antibodies described herein. Immunoassays are constructed using the antibodies of Example 3, configured to operate in a competitive mode immunoassay format, in which the analogue compounds of the invention are compared with other related compounds for cross reaction against 6-acetylmorphine. […] Aliquots of labeled 6-acetylmorphine at 10 ng/mL are incubated in the presence of competing compound with the antibody of the invention, and the level of interaction of the competitor compound determined as a reduction in measured signal compared with the situation where only 6-acetylmorphine is present.
Cross reactivity to heroin metabolites and other common structurally related opiates were evaluated using the antibodies as described with reference to Example 3. […] Aliquots of labeled 6-acetylmorphine at 10 ng/mL were incubated in the presence of competing compound with the antibody of the invention, and the level of interaction of the competitor compound determined as a reduction in measured signal compared with the situation where only 6-acetylmorphine was present.

[2] = system: selected monoclonal antibody against 6-AM; test: competitive assay for 6-AM developed with a selected antibody; assay type: binding; details: at clinically relevant concentrations
Description: (§1) The bacterial cells from each antibody library are streaked on agar to generate colonies. The colonies, coding for monoclonal antibodies, are used to inoculate culture medium in individual wells in 96-well plates. The liquid cultures are grown overnight and used to generate frozen cell stocks. The frozen cell stocks are used to generate duplicate 96-well plate cultures, followed by expression and purification of the monoclonal antibodies in soluble form in microgram quantities.
as §1, with “were” for “are”

[3] = after last heroin use; cited from earlier work

| SMILES | crossreactivity [2] | other results |
| --- | --- | --- |
| CC(=O)Oc1ccc2c3c1O[C@H]1[C@@H](OC(C)=O)C=C[C@H]4[C@@H](C2)N(C)CC[C@@]341 [Heroin, Diacetylmorphine] |  | Cross-Reactivity (%) ([1]; Analyte Conc. 750 ng/mL): 1.3% |
| CN1CC[C@]23c4c5ccc(O)c4O[C@H]2[C@@H](O)C=C[C@H]3[C@H]1C5 [Morphine] | no crossreactivity |  |
| CN1CC[C@]23c4c5ccc(O)c4O[C@H]2[C@@H](O[C@@H]2O[C@H](C(=O)O)[C@@H](O)[C@H](O)[C@H]2O)C=C[C@H]3[C@H]1C5 [Morphine 6-D-glucuronide] | no crossreactivity |  |
| CN1CC[C@]23c4c5ccc(O[C@@H]6O[C@H](C(=O)O)[C@@H](O)[C@H](O)[C@H]6O)c4O[C@H]2[C@@H](O)C=C[C@H]3[C@H]1C5 [Morphine 3-D-glucuronide] | no crossreactivity |  |
| CC(=O)O[C@H]1C=CC2[C@H]3Cc4ccc(O)c5c4[C@@]2(CCN3C)[C@H]1O5 (stereo partly drawn) [6-Acetylmorphine] |  | Cross-Reactivity (%) ([1]; Analyte Conc. 10 ng/mL): 100%; time 6-AM remains in the urine [3]: no more than 24 hours |
